Target: T1, TTL (Canis lupus familiaris, UniProt A0A8I3N5B1)
T1 construct: His-Tag (N, cleaved yes); Sumo (N, cleaved yes); made in house; host or cells: E. coli BL21 (DE3)
T1 sequence (A0A8I3N5B1 1-377): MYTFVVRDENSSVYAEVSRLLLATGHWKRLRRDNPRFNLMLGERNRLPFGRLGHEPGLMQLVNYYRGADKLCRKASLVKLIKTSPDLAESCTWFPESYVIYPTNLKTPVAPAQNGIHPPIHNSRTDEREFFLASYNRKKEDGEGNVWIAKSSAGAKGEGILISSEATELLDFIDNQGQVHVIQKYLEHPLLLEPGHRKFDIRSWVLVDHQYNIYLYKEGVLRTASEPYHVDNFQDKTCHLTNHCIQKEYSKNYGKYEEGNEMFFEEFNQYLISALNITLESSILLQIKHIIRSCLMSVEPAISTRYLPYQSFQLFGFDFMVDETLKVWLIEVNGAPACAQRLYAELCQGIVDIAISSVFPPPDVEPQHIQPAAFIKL
Experiment: TTL mediated labelling of Tub-tagged proteins with coumarin derivative 7 (SDS-PAGE, in-gel fluorescence)
Format: biochemical
Conditions: 1 μM TTL, 37°, 1-6 h
Procedure: TTL (Canis lupus) having NCBI Accession number XP_540180.2 was expressed in E. coli (BL21 DE3) as Sumo-TTL fusion protein with an N-terminal His-Tag. Cells were induced with 0.5 mM IPTG and incubated at 18° C. for 18 h. Lysis was performed in presence of Lysozyme (100 μg/ml), DNAse (25 μg/ml) and PMSF (2 mM) followed by sonification (Branson® Sonifier; 16×8sec, 20% Amplitude) and debris centrifugation at 20.000 g for 30 min. His-Sumo-TTL was purified using a 5 ml His-Trap. For removal of the Sumo-Tag, peak fractions were incubated with SenP2 protease at 4° C. overnight. A second His-Trap run then removed the Sumo fraction. Purified protein was then desalted on a PD10 column (GE Healthcare); buffer was exchanged to MES/K pH 6.8 (20 mM MES, 100 mM KCl, 10 mM MgCl2). Protein aliquots were shock-frozen and stored at −80° C. at 0.8 g/l. Functionalization reactions were performed in a 150 μL solution consisting of 20 mM MES/K pH 7.0, 100 mM KCl, 10 mM MgCl2, 2.5 mM ATP, 1 mM (7), 1 μM TTL, 5 μM ubiquitin and 5 mM DTT. The mixture was incubated at 37° for 1-6 h. Proteins were separated and analysed by SDS-PAGE and a ChemiDoc™ XRS+gel imaging system (Bio-Rad, Hercules, Calif., US). Functionalization reactions were performed in a 150 μL solution consisting of 20 mM MES/K pH 7.0, 100 mM KCl, 10 mM MgCl2, 2.5 mM ATP, 1 mM (7), 1 μM TTL, 5 μM nanobody and 5 mM DTT. The mixture was incubated at 37° for 1-6 h. Proteins were separated and analysed by SDS-PAGE and a ChemiDoc™ XRS+gel imaging system (Bio-Rad, Hercules, Calif., US). Functionalization reactions were performed in a 150 μL solution consisting of 20 mM MES/K pH 7.0, 100 mM KCl, 10 mM MgCl2, 2.5 mM ATP, 1 mM (24), 1 μM TTL, 5 μM nanobody and 5 mM DTT. The mixture was incubated at 37° for 1-6 h. Proteins were separated and analysed by SDS-PAGE and a ChemiDoc™ XRS+gel imaging system (Bio-Rad, Hercules, Calif., US).

N[C@@H](Cc1cc(=O)oc2cc(O)ccc12)C(=O)O.O=C(O)C(F)(F)F [compound 7, (1S)-1-Carboxy-2-(7-hydroxy-2-oxo-2H-chromen-4-yl)ethyl ammonium trifluoroacetate]
successfully functionalized: TTL mediated functionalization of Tub-tagged Annexin V (SDS-PAGE and in-gel fluorescence (FIG. 10)) | TTL mediated functionalization of Tub-tagged GBP nanobody (1 mM (7), 5 μM nanobody, SDS-PAGE and in-gel fluorescence (FIG. 9)) | TTL mediated functionalization of Tub-tagged ubiquitin (1 mM (7), 5 μM ubiquitin, SDS-PAGE and in-gel fluorescence (FIG. 8))

— patent US11572384B2, “Unusual substrates of tubulin tyrosine ligase” (FORSCHUNGSVERBUND BERLIN E.V., priority 2016, dated 2023)
